Experimental data from article PMC8588131, “Synthesis, In Silico Studies, and Evaluation of Syn and Anti Isomers of N-Substituted Indole-3-carbaldehyde Oxime Derivatives as Urease Inhibitors against Helicobacter pylori” (Molecules, 2021).

What was measured:
[1] = system: Macrotyloma uniflorum urease; test: in vitro urease inhibitory assay (modified Berthelot reaction, indophenol blue, absorbance at 630 nm); format: biochemical, Macrotyloma uniflorum (Horse gram); settings: for Maximum Percentage of Inhibition: maximum over tested range 5.00-35.00 μg/mL; for IC50: urease extracted from Macrotyloma uniflorum, thiourea as standard inhibitor, 37 °C, pH 7.2
Experimental: All synthesized oxime compounds (2, 6, 7, 8, and 9) were evaluated for the in vitro urease inhibitory activity using a colorimetric method. This method involves the formation of indophenol blue in a basic medium where the modified Berthelot reaction is used. The urease enzyme required for the assay was extracted from Macrotyloma uniflorum (Horse gram) with the activity of 0.1013 U, and thiourea was used as the standard inhibitor [34]. The amount of ammonia produced within a given period of time was quantified using a standard calibration method.
Modified Berthelot method was used for the determination of the amount of produced ammonia, and thereby for the quantification of the urease inhibitory activities of the synthesized oxime derivatives (compounds 2, 6, 7, 8, and 9) by measuring their absorbance at 630 nm. All the test compounds and thiourea were prepared by dissolving 2 mg of each compound in 20 mL of 1.25% DMF - buffer solution (pH = 7.2, Na2HPO4 = 0.067 mol dm^−3, KH2PO4 = 0.033 mol dm^−3). DMF doesn’t show any inhibitory effect on urease activity. Initially, a 96 well plate filled with 10 μL of urease enzyme (0.01 U) and 10–70 μL of the test compound was placed in the plate reader and incubated at 37 °C for 15 min. (Concentration of each sample was changed by varying the volume of test compounds from 10 to 70 μL.) Then, to each well, 10 μL of the buffer, 10 μL of EDTA (0.025 mol dm^−3), and 10 μL of urea (0.64 mol dm^−3) were added. After that, 80–20 μL of distilled water was added accordingly to adjust the total volume to 130 μL and incubated in plate reader for another 20 min at 37 °C. Then 35 μL of each coloring agents ((coloring agent A—1% (w/v) phenol, 0.005% (w/v) sodium nitroprusside and coloring agent B—0.5% (w/v) NaOH, 0.05% (v/v) NaOCl)) were introduced to each well, and the plate was incubated in plate reader for another 50 min at 37 °C for the development of indophenol blue color. At the end of the 50 min, the absorbance of each sample was measured at the absorbance wavelength of 630 nm. A control test was conducted to quantify the total hydrolysis of urea in the presence of urease (C). Negative control was carried out to quantify the spontaneous hydrolysis of urea in the absence of the urease enzyme (N). For each sample (T1–7), a negative control test (N1–7) was performed in the absence of the urease enzyme. All experiments were performed thrice. The percentage inhibition of the urease enzyme was calculated using Equation (1). (1) percentage inhibition=[[AC−AN]−[AT1−AN1]/[AC−AN]]×100 where • AC = Absorbance of the control sample (C) • AN = Absorbance of the negative control sample (N) • AT1−7 = Absorbance of the test sample (T1 to T7) • AN1−7 = Absorbance of the negative control of the test sample (N1 to N7)

Compound | Percentage inhibition (± SEM) ([1]; at 5.00 μg/mL) | Percentage inhibition (± SEM) ([1]; at 10.00 μg/mL) | Percentage inhibition (± SEM) ([1]; at 15.00 μg/mL) | Percentage inhibition (± SEM) ([1]; at 20.00 μg/mL) | Percentage inhibition (± SEM) ([1]; at 25.00 μg/mL) | Percentage inhibition (± SEM) ([1]; at 30.00 μg/mL) | Maximum Percentage of Inhibition [1] | IC50 [1] | melting point
Cn1cc(/C=N\O)c2ccccc21 [Compound 6, (Z)-N-hydroxy-1-(1-methyl-1H-indol-3-yl)methanimine] | 24.57 ± 1.22% | 28.15 ± 0.81% | 29.91 ± 0.90% | 40.38 ± 0.24% | 55.76 ± 0.60% | 73.07 ± 0.35% | 77.05% | 140 ± 4.5 µM | 112 to 115 °C
O/N=C/c1cn(Cc2ccccc2)c2ccccc12 [Compound 9, (E)-1-(1-benzyl-1H-indol-3-yl)-N-hydroxymethanimine] | 33.06 ± 1.23% |  | 72.38 ± 0.77% | 77.61 ± 1.55% | 83.21 ± 0.82% | 84.89 ± 0.47% | 86.09% | 34.5 ± 0.8 µM | 140 to 143 °C
NC(N)=S [Thiourea, thiourea, reference compound] | 11.24 ± 0.28% | 22.61 ± 0.49% | 38.41 ± 0.63% | 61.54 ± 0.53% | 74.36 ± 0.50% | 81.49 ± 0.67% | 85.14% | 239 ± 4.8 µM | 
O/N=C\c1cn(Cc2ccccc2)c2ccccc12 [Compound 8, (Z)-1-(1-benzyl-1H-indol-3-yl)-N-hydroxymethanimine] | 36.36 ± 0.79% | 44.39 ± 0.70% | 58.52 ± 0.58% | 67.99 ± 1.01% | 76.49 ± 1.24% | 79.64 ± 0.88% | 83.78% | 51.6 ± 3.5 µM | 132 to 134 °C
Cn1cc(/C=N/O)c2ccccc21 [Compound 7, (E)-N-hydroxy-1-(1-methyl-1H-indol-3-yl)methanimine] | 22.74 ± 0.93% | 31.87 ± 0.59% | 38.14 ± 1.25% | 44.38 ± 0.35% | 48.92 ± 0.67% | 53.01 ± 0.85% | 57.17% | 153 ± 1.6 µM | 126 to 129 °C
O/N=C\c1c[nH]c2ccccc12 [Compound 2, (Z)-N-hydroxy-1-(1H-indole-3-yl)methanimine] | 17.46 ± 0.71% | 24.56 ± 0.53% | 29.28 ± 0.52% | 39.40 ± 0.65% | 57.27 ± 0.63% | 64.87 ± 0.93% | 67.81% | 141 ± 7.5 µM | 
